Measurements: US6610853B1, “N-(phenylsulfonyl)picolinamide derivatives, process for producing the same, and herbicide” (Kureha Kagaku Kogyo K.K., priority 2000, dated 2003)

Legend:
Test in all cases: Test on herbicidal activity by foliar application
Type in all cases: in vivo
Details in all cases: foliar spray, 1 kg/ha, plants at 1-2 leaf stage in pots, evaluated 14 days after spraying
Amaranthus retroflexus = test system: Amaranthus retroflexus
Method in brief: (§1)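 Foliar spray, 1 kg/ha, wettable powder in solution; pot plants at 1-2 leaf stage. Read at 14 d. Score 1-5 (<30%, 30-50%, 50-70%, 70-90%, ≥90% inhibition).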

Solanum nigrum = test system: Solanum nigrum
Method in brief: as §1

Setaria viridis = test system: Setaria viridis
Method in brief: as §1

Stellaria media = test system: Stellaria media
Method in brief: as §1

Bidens pilosa = test system: Bidens pilosa
Method in brief: as §1

Galium aparine = test system: Galium aparine
Method in brief: as §1

Veronica hederaefolia = test system: Veronica hederaefolia
Method in brief: as §1

Sinapis arvensis = test system: Sinapis arvensis
Method in brief: as §1

Convolvulus arvensis = test system: Convolvulus arvensis
Method in brief: as §1

Abutilon theophrasti = test system: Abutilon theophrasti
Method in brief: as §1

Matricaria chamomilla = test system: Matricaria chamomilla
Method in brief: as §1

Structure (SMILES) | Herbicidal activity, Amaranthus retroflexus (Amaranthus retroflexus) | Herbicidal activity, Solanum nigrum (Solanum nigrum) | Herbicidal activity, Setaria viridis (Setaria viridis) | Herbicidal activity, Stellaria media (Stellaria media) | Herbicidal activity, Bidens pilosa (Bidens pilosa) | Herbicidal activity, Galium aparine (Galium aparine) | Herbicidal activity, Veronica hederaefolia (Veronica hederaefolia) | Herbicidal activity, Sinapis arvensis (Sinapis arvensis) | Herbicidal activity, Convolvulus arvensis (Convolvulus arvensis) | Herbicidal activity, Abutilon theophrasti (Abutilon theophrasti) | Herbicidal activity, Matricaria chamomilla (Matricaria chamomilla)
COc1ccc(C(=O)NS(=O)(=O)c2ccccc2S(=O)(=O)N(C)C)nc1[N+](=O)[O-] [Compound I-858, N-[[2-(N,N-Dimethylaminosulfonyl)phenyl]-sulfonyl]-5-methoxy-6-nitro-2-pyridinecarboxamide] | 5 (90% or more inhibition) | 5 (90% or more inhibition) | 5 (90% or more inhibition) | 5 (90% or more inhibition) | 5 (90% or more inhibition) | 5 (90% or more inhibition) | 4 (70% or more-90% inhibition) | 5 (90% or more inhibition) | 5 (90% or more inhibition) | 5 (90% or more inhibition) | 4 (70% or more-90% inhibition)
COc1ccc(C(=O)NS(=O)(=O)c2ccccc2S(=O)(=O)N(C)C)nc1C [Compound I-859, N-[[2-(N,N-Dimethylaminosulfonyl)phenyl]-sulfonyl]-6-methyl-5-methoxy-2-pyridinecarboxamide] | 5 (90% or more inhibition) | 5 (90% or more inhibition) | 5 (90% or more inhibition) | 5 (90% or more inhibition) | 5 (90% or more inhibition) | 5 (90% or more inhibition) | 5 (90% or more inhibition) | 5 (90% or more inhibition) | 4 (70% or more-90% inhibition) | 5 (90% or more inhibition) | 5 (90% or more inhibition)
CN(C)S(=O)(=O)c1ccccc1S(=O)(=O)NC(=O)c1cccc(Cl)n1 [Compound I-861, N-[[2-(N,N-Dimethylaminosulfonyl)phenyl]-sulfonyl)-6-chloro-2-pirydinecarboxamide] | 5 (90% or more inhibition) | 5 (90% or more inhibition) | 5 (90% or more inhibition) | 5 (90% or more inhibition) | 5 (90% or more inhibition) | 5 (90% or more inhibition) | 4 (70% or more-90% inhibition) | 5 (90% or more inhibition) | 5 (90% or more inhibition) | 5 (90% or more inhibition) | 5 (90% or more inhibition)
COc1ccc(C(=O)NS(=O)(=O)c2ccccc2S(=O)(=O)N(C)C)nc1 [Compound I-864] | 3 (50% or more-70% inhibition) | 4 (70% or more-90% inhibition) | 4 (70% or more-90% inhibition) | 5 (90% or more inhibition) | 5 (90% or more inhibition) | 4 (70% or more-90% inhibition) | 4 (70% or more-90% inhibition) | 5 (90% or more inhibition) | 3 (50% or more-70% inhibition) | 5 (90% or more inhibition) | 5 (90% or more inhibition)
Cc1nc(C(=O)NS(=O)(=O)c2ccccc2S(=O)(=O)N(C)C)ccc1[N+](=O)[O-] [Compound I-868, N-[[2-(N,N-Dimethylaminosulfonyl)phenyl]-sulfonyl]-6-methyl-5-nitro-2-pyridinecarboxamide] | 3 (50% or more-70% inhibition) | 4 (70% or more-90% inhibition) | 3 (50% or more-70% inhibition) | 4 (70% or more-90% inhibition) | 5 (90% or more inhibition) | 5 (90% or more inhibition) | 3 (50% or more-70% inhibition) | 5 (90% or more inhibition) | 3 (50% or more-70% inhibition) | 3 (50% or more-70% inhibition) | 2 (30% or more-50% inhibition)
COc1cc(Cl)nc(C(=O)NS(=O)(=O)c2ccccc2S(=O)(=O)N(C)C)c1 [Compound I-885, 6-Chloro-4-methoxy-N-[[2-(N,N-dimethylaminosulfonyl)phenyl]sulfonyl]-2-pyridinecarboxamide] | 5 (90% or more inhibition) | 5 (90% or more inhibition) | 5 (90% or more inhibition) | 5 (90% or more inhibition) | 5 (90% or more inhibition) | 5 (90% or more inhibition) | 4 (70% or more-90% inhibition) | 5 (90% or more inhibition) | 5 (90% or more inhibition) | 5 (90% or more inhibition) | 5 (90% or more inhibition)
COc1ccc(C(=O)NS(=O)(=O)c2ccccc2S(=O)(=O)N(C)C)nc1Cl [Compound I-888, N-[[2-(N,N-Dimethylaminosulfonyl)phenyl]-sulfonyl]-6-chloro-5-methoxy-2-pyridinecarboxamide] | 5 (90% or more inhibition) | 5 (90% or more inhibition) | 5 (90% or more inhibition) | 5 (90% or more inhibition) | 5 (90% or more inhibition) | 5 (90% or more inhibition) | 4 (70% or more-90% inhibition) | 5 (90% or more inhibition) | 5 (90% or more inhibition) | 5 (90% or more inhibition) | 5 (90% or more inhibition)
COc1ccc(C(=O)NS(=O)(=O)c2ccccc2S(=O)(=O)N(C)C)nc1OC [Compound I-889, N-[[2-(N,N-Dimethylaminosulfonyl)phenyl]-sulfonyl]-5,6-dimethoxy-2-pyridinecarboxamide] | 5 (90% or more inhibition) | 4 (70% or more-90% inhibition) | 4 (70% or more-90% inhibition) | 5 (90% or more inhibition) | 5 (90% or more inhibition) | 5 (90% or more inhibition) | 3 (50% or more-70% inhibition) | 5 (90% or more inhibition) | 4 (70% or more-90% inhibition) | 5 (90% or more inhibition) | 5 (90% or more inhibition)
COc1ccc(C(=O)NS(=O)(=O)c2ccccc2S(=O)(=O)N(C)C)nc1Br [Compound I-895, N-[[2-(N,N-Dimethylaminosulfonyl)phenyl]-sulfonyl]-6-bromo-5-methoxy-2-pyridinecarboxamide] | 5 (90% or more inhibition) | 5 (90% or more inhibition) | 5 (90% or more inhibition) | 5 (90% or more inhibition) | 5 (90% or more inhibition) | 5 (90% or more inhibition) | 5 (90% or more inhibition) | 5 (90% or more inhibition) | 5 (90% or more inhibition) | 5 (90% or more inhibition) | 5 (90% or more inhibition)
COc1cc(Cl)nc(C(=O)NS(=O)(=O)c2c(F)cccc2F)c1 [Compound I-975, N-[(2,6-Difluorophenyl)sulfonyl]-6-chloro-4-methoxy-2-pyridinecarboxamide] | 3 (50% or more-70% inhibition) | 5 (90% or more inhibition) | 3 (50% or more-70% inhibition) | 4 (70% or more-90% inhibition) | 5 (90% or more inhibition) | 5 (90% or more inhibition) | 3 (50% or more-70% inhibition) | 5 (90% or more inhibition) | 4 (70% or more-90% inhibition) | 5 (90% or more inhibition) | 4 (70% or more-90% inhibition)
